Laboratory results: article PMC10150359 (Journal of Medicinal Chemistry, 2023)

Legend:
[1] = test system: VSV-G-pseudotype virus (pVSV-G); experiment: microbe, parasite or virus in culture; format: cell-based; conditions: Vesicular stomatitis virus, read-out: %inh@10 µM (pVSV-G)
[2] = test system: EBOV-GP-Pseudotype Virus (pEBOV)
[3] = test system: wild-type Zaire EBOV Mayinga 1976 strain (EBOV May)
[4] = in vitro; conditions: human
[5] = in vitro; conditions: chlorocebus sabaeus
[6] = test system: EBOV-GP-Pseudotype Virus (pEBOV); experiment: microbe, parasite or virus in culture; conditions: Zaire ebolavirus, 48 h; for EC50: HeLa, read-out: EC50 (μM) (pEBOV); for inhibition at 10 µM: M-HeLa, read-out: %inh@10 μM (pEBOV)
[7] = test system: wild-type Zaire EBOV Mayinga 1976 strain (EBOV May); experiment: microbe, parasite or virus in culture; conditions: Zaire ebolavirus, Vero C1008, 72 h, read-out: EC50 (μM), replicative EBOV

Structure (SMILES) | inhibition at 10 µM [6] [%] | CC50 [4] [µM] | other results
O=C(CCNCCC1CCN(Cc2ccccc2)CC1)Nn1c2ccccc2c2ccccc21 [Compound 2] |  |  | inhibition at 10 µM [1]: 10%; SI (pEBOV) (CC50/EC50) [2]: 2.87; SI (CC50/EC50), replicative EBOV [3]: 9.1; CC50 at 24 h [4]: 0.46 µM; CC50 at 24 h [5]: 4.75 µM; EC50 [6]: 0.16 µM; EC50 [7]: 0.52 µM
CN1CCN(CCC(=O)Nn2c3ccccc3c3ccccc32)CC1 [Compound 3] |  |  | inhibition at 10 µM [1]: 10%; SI (pEBOV) (CC50/EC50) [2]: 62.5; CC50 at 24 h [4]: 150 µM; EC50 [6]: 2.4 µM
CN(C)CC(=O)Nn1c2ccccc2c2ccccc21 [Compound 4] | < 75 |  | antiviral activity against pEBOV, in words [2]: inactive
CN(C)CCC(=O)Nn1c2ccccc2c2ccccc21 [Compound 5] | < 75 |  | antiviral activity against pEBOV, in words [2]: inactive
O=C(CCN1CCCC1)Nn1c2ccccc2c2ccccc21 [Compound 6] |  |  | inhibition at 10 µM [1]: 9%; SI (pEBOV) (CC50/EC50) [2]: 21.7; CC50 at 24 h [4]: 28 µM; EC50 [6]: 1.29 µM
O=C(CCN1CCCCC1)Nn1c2ccccc2c2ccccc21 [Compound 7] |  |  | inhibition at 10 µM [1]: 30%; SI (pEBOV) (CC50/EC50) [2]: 1.78; CC50 at 24 h [4]: 5 µM; EC50 [6]: 2.8 µM
O=C(CCl)Nn1c2ccccc2c2ccccc21 [Compound 8] | < 75 |  | antiviral activity against pEBOV, in words [2]: inactive
O=C(CNCCC1CCN(Cc2ccccc2)CC1)NC1c2ccccc2-c2ccccc21 [Compound 9, 2-((2-(1-Benzylpiperidin-4-yl)ethyl)amino)-N-(9H-fluoren-9-yl)acetamide] |  |  | inhibition at 10 µM [1]: -10%; SI (pEBOV) (CC50/EC50) [2]: 93; SI (CC50/EC50), replicative EBOV [3]: 134.6; CC50 at 24 h [4]: 159 µM; CC50 at 24 h [5]: 33.6 µM; EC50 [6]: 1.7 µM; EC50 [7]: 0.25 µM
CN1CCN(CCC(=O)NN(c2ccccc2)c2ccccc2)CC1 [Compound 14, 3-(4-Methylpiperazin-1-yl)-N′,N′-diphenylpropanehydrazide] |  | > 100 | inhibition at 10 µM [1]: 2%; SI (pEBOV) (CC50/EC50) [2]: 358; CC50 [5]: > 100 µM; EC50 [6]: 0.27 µM; EC50 [7]: > 100 µM
O=C(CN1CCN(c2ccccc2)CC1)NN(c1ccccc1)c1ccccc1 [Compound 15, N′,N′-Diphenyl-2-(4-phenylpiperazin-1-yl)acetohydrazide] | 8 | > 10 | EC50 [6]: > 100 µM
O=C(CCN1CCN(c2ccccc2)CC1)NN(c1ccccc1)c1ccccc1 [Compound 16, N′,N′-Diphenyl-3-(4-phenylpiperazin-1-yl)propanehydrazide] | 70 | > 10 | 
CCOC(=O)C1CCN(CC(=O)NN(c2ccccc2)c2ccccc2)CC1 [Compound 17, Ethyl 1-(2-(2,2-Diphenylhydrazinyl)-2-oxoethyl)piperidine-4-carboxylate] | 47 | > 10 | 
CCOC(=O)C1CCN(CCC(=O)NN(c2ccccc2)c2ccccc2)CC1 [Compound 18, Ethyl 1-(3-(2,2-Diphenylhydrazinyl)-3-oxopropyl)piperidine-4-carboxylate] | 24 | > 10 | 
O=C(CCN1CCCCC1)NN(c1ccccc1)c1ccccc1 [Compound 19, N′,N′-Diphenyl-3-(piperidin-1-yl)propanehydrazide] | 60 | > 10 | antiviral activity against pEBOV, in words [2]: inactive
O=C(CN1CCOCC1)NN(c1ccccc1)c1ccccc1 [Compound 20, 2-Morpholino-N′,N′-diphenylacetohydrazide] | -1 | > 10 | 
O=C(CCN1CCOCC1)NN(c1ccccc1)c1ccccc1 [Compound 21, 3-Morpholino-N′,N′-diphenylpropanehydrazide] | 29 | > 10 | 
O=C(CNCCN1CCOCC1)NN(c1ccccc1)c1ccccc1 [Compound 22, 2-((2-Morpholinoethyl)amino)-N′,N′-diphenylacetohydrazide] | 27 | > 10 | 
O=C(CCNCCN1CCOCC1)NN(c1ccccc1)c1ccccc1 [Compound 23, 3-((2-Morpholinoethyl)amino)-N′,N′-diphenylpropanehydrazide] | 42 | > 10 | 
O=C(CNCCc1ccccc1)NN(c1ccccc1)c1ccccc1 [Compound 24, 2-(Phenethylamino)-N′,N′-diphenylacetohydrazide] | 10 | > 10 | 
O=C(CCNCCc1ccccc1)NN(c1ccccc1)c1ccccc1 [Compound 25, 3-(Phenethylamino)-N′,N′-diphenylpropanehydrazide] | 61 | > 10 | 

Structure (SMILES) | inhibition at 10 µM [6] [%] | CC50 [4] [µM] | other results
CCOC(=O)CCCCCCNCC(=O)NN(c1ccccc1)c1ccccc1 [Compound 26, Ethyl 7-((2-(2,2-Diphenylhydrazinyl)-2-oxoethyl)amino)heptanoate] | 51 | > 10 | 
CCOC(=O)CCCCCCNCCC(=O)NN(c1ccccc1)c1ccccc1 [Compound 27, Ethyl 7-((3-(2,2-Diphenylhydrazinyl)-3-oxopropyl)amino)heptanoate] | 53 | > 10 | 
CCCCCC(=O)NN(c1ccccc1)c1ccccc1 [Compound 28, N′,N′-Diphenylhexanehydrazide] | 67 | > 10 | 
O=C(Cc1ccc(Br)cc1)NN(c1ccccc1)c1ccccc1 [Compound 29, 2-(4-Bromophenyl)-N′,N′-diphenylacetohydrazide] | 73 | > 10 | 
O=C(CNCCC1CCN(Cc2ccccc2)CC1)NN(Cc1ccccc1)c1ccccc1 [Compound 30, N′-Benzyl-2-((2-(1-benzylpiperidin-4-yl)ethyl)amino)-N′-phenylacetohydrazide] |  |  | inhibition at 10 µM [1]: -25%; SI (pEBOV) (CC50/EC50) [2]: 62; CC50 at 24 h [4]: 106 µM; EC50 [6]: 1.05 µM
O=C(CCNCCC1CCN(Cc2ccccc2)CC1)NN(Cc1ccccc1)c1ccccc1 [Compound 31, N′-Benzyl-3-((2-(1-benzylpiperidin-4-yl)ethyl)amino)-N′-phenylpropanehydrazide] | < 75 | > 10 | antiviral activity against pEBOV, in words [2]: inactive
O=C(CCNCCN1CCN(Cc2ccccc2)CC1)NN(Cc1ccccc1)c1ccccc1 [Compound 32, N′-Benzyl-3-((2-(4-benzylpiperazin-1-yl)ethyl)amino)-N′-phenylpropanehydrazide] |  |  | inhibition at 10 µM [1]: -36%; SI (pEBOV) (CC50/EC50) [2]: 19.2; CC50 at 24 h [4]: 70 µM; EC50 [6]: 3.63 µM
CN1CCN(CC(=O)NN(Cc2ccccc2)c2ccccc2)CC1 [Compound 33] | 13 | > 100 | antiviral activity against pEBOV, in words [2]: inactive; CC50 [5]: > 100 µM; EC50 [7]: > 100 µM
CN1CCN(CCC(=O)NN(Cc2ccccc2)c2ccccc2)CC1 [Compound 34, N′-Benzyl-3-(4-methylpiperazin-1-yl)-N′-phenylpropanehydrazide] | < 75 | > 10 | antiviral activity against pEBOV, in words [2]: inactive
CCOC(=O)C1CCN(CC(=O)NN(Cc2ccccc2)c2ccccc2)CC1 [Compound 35, Ethyl 1-(2-(2-Benzyl-2-phenylhydrazineyl)-2-oxoethyl)piperidine-4-carboxylate] | 15 | > 100 | 
COC(=O)C1CCN(CC(=O)NN(Cc2ccccc2)c2ccccc2)CC1 [Compound 36, Methyl 1-(2-(2-Benzyl-2-phenylhydrazineyl)-2-oxoethyl)piperidine-4-carboxylate] | 24 | > 100 | 
CCOC(=O)CCCCCCNCC(=O)NN(Cc1ccccc1)c1ccccc1 [Compound 37, Ethyl 7-((2-(2-Benzyl-2-phenylhydrazineyl)-2-oxoethyl)amino)heptanoate] | 30 | > 100 | 
CCCCCC(=O)NN(Cc1ccccc1)c1ccccc1 [Compound 38, N′-Benzyl-N′-phenylhexanehydrazide] | 18 | > 100 | 
O=C(Cc1ccc(Br)cc1)NN(Cc1ccccc1)c1ccccc1 [Compound 39, N′-Benzyl-2-(4-bromophenyl)-N′-phenylacetohydrazide] | 32 | > 100 | 
O=C(CNCCC1CCN(Cc2ccccc2)CC1)N(c1ccccc1)c1ccccc1 [Compound 40, 2-((2-(1-Benzylpiperidin-4-yl)ethyl)amino)-N,N-diphenylacetamide] | 8 |  | CC50 at 24 h [4]: 100 µM
CCOC(=O)C1CCN(CC(=O)N(c2ccccc2)c2ccccc2)CC1 [Compound 41, Ethyl 1-(2-(Diphenylamino)-2-oxoethyl)piperidine-4-carboxylate] | 40 | > 100 | 
O=C(CNCCc1ccccc1)N(c1ccccc1)c1ccccc1 [Compound 42, 2-(Phenethylamino)-N,N-diphenylacetamide] | 38 | > 100 | 
CCOC(=O)CCCCCCNCC(=O)N(c1ccccc1)c1ccccc1 [Compound 43, Ethyl 7-((2-(Diphenylamino)-2-oxoethyl)amino)heptanoate] | 35 | > 100 | 
CCCCCC(=O)N(c1ccccc1)c1ccccc1 [Compound 44, N,N-Diphenylhexanamide] | 32 | > 100 | 
O=C(Cc1ccc(Br)cc1)N(c1ccccc1)c1ccccc1 [Compound 45, 2-(4-Bromophenyl)-N,N-diphenylacetamide] | 36 | > 100 | 
